The text below walks through data of patent publication US11331289B2, “Antimicrobial composition” (priority 2017, dated 2022).

The test system of this experiment is Malassezia pachydermatis. The experiment is described as follows: MIC, microdilution broth method. The format is cell-based. The method, then:
Six clinical isolates from dog skin (n=5) and cats (n=1) which had been sent to EnvA (mycology laboratory of BioPôle Alfort) for mycological culture. The isolates, collected in March 2016, were identified as belonging to the species Malassezia pachydermatis. They were maintained by regular transplanting on medium of Sabouraud. Isolates are subcultured 2 to 3 days prior to testing sensitivity.
A stock solution of Oxyclozanide at 1600 μg/mL is prepared in DMSO. The stock solution is then diluted in DMSO to obtain a concentration range of 3.125 μg/ml to 800 μg/ml. A 1/50 dilution of this range and of the stock solution is then carried out in ultrapure water so as to obtain a concentration range of 0.0625 μg/ml to 32 μg/ml and containing 2% of DMSO. 50 μl of these solutions are deposited in wells of a microplate and then 50 μl of inoculum calibrated at 10^6 CFU/ml in Sabouraud/Tween 40 (2%) are added. A range of tested concentrations ranges from 0.0312 μg/mL to 16 μg/mL. The final concentration of DMSO in contact with the inoculum is 1%. The same dilution and seeding protocol was followed with a stock solution of amphotericin B at 1600 μg/ml. A “placebo” (or yeast growth control) column is systematically included in the plates. The plates are incubated at 37 ° C. The reading is done at 24 and 48 h. Several trials were conducted and protocol adjustments were required. In particular, the concentration of the inoculum had to be reduced for antifungal activity to be observed.
Background: Broth dilution looks for growth in wells or tubes with falling amounts of substance.

Molecules are shown by their SMILES. Converted amounts (≈) assume the structure as drawn.

A word on the MIC: it is the least concentration at which growth counts as inhibited. Take `C[C@@H]1[C@H](O)[C@@H](C)/C=C/C=C/C=C/C=C/C=C/C=C/C=C/[C@H](O[C@@H]2O[C@H](C)[C@@H](O)[C@H](N)[C@@H]2O)C[C@@H]2O[C@](O)(C[C@@H](O)C[C@@H](O)[C@H](O)CC[C@@H](O)C[C@@H](O)CC(=O)O[C@H]1C)C[C@H](O)[C@H]2C(=O)O` [Amphoterine B, amphotericin B]: the MIC reads like this: (Isolate 1, Assay 1, 10^6 CFU/ml) 2 µg/mL (≈ 2.16 µM); (Isolate 1, Assay 2, 10^6 CFU/ml) 4 µg/mL (≈ 4.33 µM); (Isolate 2, Assay 1, 10^6 CFU/ml) 2 µg/mL (≈ 2.16 µM); (Isolate 2, Assay 2, 10^6 CFU/ml) 2 µg/mL (≈ 2.16 µM); (Isolate 3, Assay 1, 10^6 CFU/ml) 4 µg/mL (≈ 4.33 µM); (Isolate 3, Assay 2, 10^6 CFU/ml) 8 µg/mL (≈ 8.66 µM). Besides, the MIC was found to be 4 µg/mL (≈ 4.33 µM) (Isolate 4, Assay 1, 10^6 CFU/ml); 4 µg/mL (≈ 4.33 µM) (Isolate 4, Assay 2, 10^6 CFU/ml); 4 µg/mL (≈ 4.33 µM) (Isolate 5, Assay 1, 10^6 CFU/ml); 4 µg/mL (≈ 4.33 µM) (Isolate 5, Assay 2, 10^6 CFU/ml); 4 µg/mL (≈ 4.33 µM) (Isolate 6, Assay 1, 10^6 CFU/ml); 8 µg/mL (≈ 8.66 µM) (Isolate 6, Assay 2, 10^6 CFU/ml).
